According to ChEMBL document CHEMBL1149063, “Secondary metabolites by chemical screening, 26.1 7-O-beta-D-galactosyl-brefeldin A via transglycosylation with Penicillium brefeldianum” (J Nat Prod, 1994):
≈ marks a conversion by molar mass, not a printed value.

Legend:
[1] = test system: HT-29; assay: Antiproliferative activity against human HT-29 cells by MTT reduction assay; assay type: functional, cell-based
[2] = test system: L1210; assay: Antiproliferative activity against mouse L1210 cells by MTT reduction assay; assay type: functional, cell-based
[3] = test system: A549; assay: Antiproliferative activity against human A549 cells by MTT reduction assay; assay type: functional, cell-based
[4] = Toxicity in po dosed rat; assay type: organism-based; conditions: in vivo

| IC50 [1] [µg/mL] | IC50 [2] [µg/mL] | IC50 [3] [µg/mL] | SMILES | LD50 [4] [mg/kg] |
| --- | --- | --- | --- | --- |
| 1.3 (≈ 2.94 µM) | 10 (≈ 22.6 µM) | 1.2 (≈ 2.71 µM) | C[C@H]1CCC/C=C/[C@@H]2C[C@H](O[C@@H]3O[C@H](CO)[C@H](O)[C@H](O)[C@H]3O)C[C@H]2[C@H](O)/C=C/C(=O)O1 [7-O-BETA-D-GALACTOSYL-BREFELDIN A] | – |
| – | – | – | C[C@H]1CCC/C=C/[C@@H]2C[C@H](O)C[C@H]2[C@H](O)/C=C/C(=O)O1 [BREFELDIN A] | 275 |
